Reference: patent publication US3956292A, “7-(α-FUROYLUREIDOARYL AND CYCLOHEXADIENYLACETAMIDO) CEPHALOSPORIN ANTIBIOTICS” (Eli Lilly and Company, priority 1975, dated 1976)
Values after ≈ are worked out from the molar mass of the structure shown. Where two headings read alike, the source gives them in different places.

Assays:
Format in all cases: cell-based
Salmonella heidelberg = assay: Antibiotic activity in vitro, MIC by gradient plate method; conditions: Salmonella enterica
Protocol: (§1) The antibiotic activity of the compounds of the invention is illustrated by the in vitro data presented in the following Tables I and II for two of the preferred compounds. In the tables, the minimum inhibitory concentrations (MIC) of the test compounds versus the indicated gram-positive and gram-negative microorganisms is presented. The MIC values were determined by the gradient plate method which is essentially the method described by Bryson and Szybalski, Science, 116, 45-46 (1952).
(§2) Table II lists the inhibitory activity in terms of MIC values against clinical isolates of penicillin resistant Staphylococcus microorganisms both in the presence of and in the absence of serum.

Pseudomonas aeruginosa = assay: as above
Protocol: as §1, §2

Shigella sp. = assay: as above
Protocol: as §1, §2

Serratia marcescens = assay: as above
Protocol: as §1, §2

Escherichia coli = assay: as above
Protocol: as §1, §2

Klebsiella pneumoniae = assay: as above
Protocol: as §1, §2

Aerobacter aerogenes = assay: as above; conditions: Klebsiella aerogenes
Protocol: as §1, §2

[1] = tested on: Resistant Staphylococcus V-32; assay: Antibiotic activity vs. penicillin resistant Staphylococcus clinical isolates, MIC by gradient plate method
Protocol: as §1, §2

[2] = tested on: Resistant Staphylococcus V-84; assay: as above
Protocol: as §1, §2

[3] = tested on: Resistant Staphylococcus V-41; assay: as above
Protocol: as §1, §2

[4] = tested on: Resistant Staphylococcus X1.1; assay: as above
Protocol: as §1, §2

[5] = tested on: Resistant Staphylococcus X-400; assay: as above
Protocol: as §1, §2

[6] = Staphylococcus, absence of serum (NS), read-out: MIC

Row | Structure (SMILES) | MIC (Salmonella heidelberg) [µg/mL] | MIC (Pseudomonas aeruginosa) [µg/mL] | MIC (Shigella sp.) [µg/mL] | MIC (Serratia marcescens) [µg/mL] | MIC (Escherichia coli) [µg/mL] | MIC (Klebsiella pneumoniae) [µg/mL] | MIC (Aerobacter aerogenes) [µg/mL] | MIC ([1]; absence of serum (NS)) [µg/mL] | MIC ([1]; presence of serum (S)) [µg/mL] | MIC ([2]; absence of serum (NS)) [µg/mL] | MIC ([2]; presence of serum (S)) [µg/mL] | MIC ([3]; absence of serum (NS)) [µg/mL] | MIC ([3]; presence of serum (S)) [µg/mL] | MIC ([4]; absence of serum (NS)) [µg/mL] | MIC ([4]; presence of serum (S)) [µg/mL] | MIC [5, 6] [µg/mL] | MIC ([5]; presence of serum (S)) [µg/mL]
1 | Cn1nnnc1SCC1=C(C(=O)O)N2C(=O)C(NC(=O)C(NC(=O)NC(=O)c3ccco3)c3ccccc3)C2SC1 (stereo not drawn) [Test Compound A, 7-[α-(3-α-furoyl-1-ureido)-α-phenylacetamido]-3-(1-methyl-1H-tetrazole-5-ylthiomethyl)-3-cephem-4-carboxylic acid] | 6.8 (≈ 11.4 µM) | 12.3 (≈ 20.5 µM) | 5.5 (≈ 9.19 µM) | 19.5 (≈ 32.6 µM) | 7 (≈ 11.7 µM) | 5 (≈ 8.35 µM) | 7.5 (≈ 12.5 µM) | 4.5 (≈ 7.52 µM) | 8 | 0.4 (≈ 0.668 µM) | 1 | 3 (≈ 5.01 µM) | 8 | 0.4 (≈ 0.668 µM) | 1 | > 20 | > 20
2 | Cn1nnnc1SCC1=C(C(=O)O)N2C(=O)C(NC(=O)C(NC(=O)NC(=O)c3ccco3)c3ccc(O)cc3)C2SC1 (stereo not drawn) [Test Compound B, 7-[α-(3-α-furoyl-1-ureido)-α-(4-hydroxyphenyl)acetamido]-3-(1-methyl-1H-tetrazole-5-ylthiomethyl)-3-cephem-4-carboxylic acid] | 5.8 (≈ 9.44 µM) | 10.7 (≈ 17.4 µM) | 5.5 (≈ 8.95 µM) | 14.5 (≈ 23.6 µM) | 5.8 (≈ 9.44 µM) | 6.3 (≈ 10.3 µM) | 6.5 (≈ 10.6 µM) | 13.7 (≈ 22.3 µM) | > 20 | 1 (≈ 1.63 µM) | 1 | 5 (≈ 8.14 µM) | > 20 | 1 (≈ 1.63 µM) | 1 | > 20 | > 20
